Experimental data reported in patent publication EP1487434B1, “BOTANICAL EXTRACT COMPOSITIONS WITH ANTI-CANCER ACTIVITY COMPRISING ISOLIQUIRITIGENIN” (The Medical Research and Education Trust, priority 2002, dated 2003).
In brackets after ≈: the same amount, converted by molar mass.

What was measured:
Assay type in all cases: cell-based
[1] = system: LNCaP (androgen-dependent) prostate cancer cells; assay: MTT cell viability assay, LNCaP; conditions: Homo sapiens, 72 h, read-out: ED50 values from MTT Assay, LNCaP
Excerpt: (§1) Cancer cell lines: LNCaP, DU-145, and MCF-7 cells were purchased from the American Type Culture Collection. PTX 10, a taxol-resistant ovarian cancer cell line, was obtained from the Brander Cancer Research Laboratory, New York Medical College. Cells were maintained in RPMI 1640 culture media supplemented with 10% heat-inactivated FBS, 5 millimolar glutamine, 50 units/milliliter of penicillin G, and 50 […] of streptomycin. The cells were routinely seeded at 1X 10^5 cells/milliliter in T-75 flasks, allowed to attach overnight, then treated with the herbal extract. At different times, cells were harvested by trypsinization.
(§2) The MTT assay (MTT = 3-(4,5-dimethylthiazol-2-yl)-2,5-diphenyl tetrazolium bromide) was used to count viable cells. The assay reagents were purchased from Boehringer Mannheim (Roche Diagnosis Corp, Indianapolis, Indiana). […] The protocol for the cell , viability assay was provided by the manufacturer and modified in our laboratory as described below.
(§3) Prostate or breast (reference) cancer cells were seeded in 96 well microtiter plates at a concentration of 3x10^3 cells per well (MCF-7; breast cancer cells) or 6x10^3 cells per well (LNCaP or DU145; prostate cancer cells), in a volume of 100 microliters of cell culture medium. After 24 hours, 20 microliter aliquots of the compounds at various concentrations were added to the attached cells. […]

[2] = system: DU-145 (androgen-independent) prostate cancer cells; assay: MTT cell viability assay, DU-145; conditions: Homo sapiens, DU-145, 72 h, read-out: ED50 values from MTT Assay, DU145
Excerpt: as §1, §2, §3

[3] = system: MCF-7 breast cancer cells; assay: MTT cell viability assay, MCF-7; conditions: Homo sapiens, MCF7; concentration giving 50% inhibition of cancer cell growth, 72 hours, linear interpolation; read-out: ED50 values from MTT Assay, MCF7
Excerpt: as §1, §2, §3

[4] = system: PTX 10, a taxol resistant ovarian cancer cell line; assay: MTT cell viability assay, PTX 10; conditions: PTX10, 72 h, read-out: ED50, PTX 10 (taxol resistant Ovarian cancer cell)
[5] = system: LNCaP cells; assay: Cell cycle measurement by DNA content flow cytometry, LNCaP; conditions: two concentrations, 24-48 hours exposure
Protocol: (§4) The cells were washed with phosphate buffered saline (PBS) and fixed in ice-cold 70% ethanol. Aliquots of fixed cells were rehydrated in PBS and stained with 1.0 microgram/milliliter DAPI (4,6-diamidino-2-phenylindole from Eastman Kodak, Rochester, NY), and dissolved in 10 millimolar piperazine-N,N-bis-2-ethane-sulfonic acid buffer (Calbiochem, La Jolla, CA) containing 100 millimolar NaCl, 2mM MgCl2 and 0.1% Triton X-100 (Sigma) at pH 6.8 as previously described by Halicka et al. (H. D. Halicka, B. Ardelt, G. Juan, A. Mittelman, S. Chen, F. Traganos and Z. Darzynkiewicz, "Apoptosis and Cell Cycle Effects Induced by Extracts of the Chinese Herbal Preparation of PC SPES", International J. of Oncology (1997), 11: 437-448).
(§5) The cellular DNA content was measured with an ELITE ESP flow cytometer (Coulter Inc., F1.) using UV laser illumination. The multicycle program was used to deconvolute the DNA frequency histograms to estimate the frequency of cells in different phases of the cell cycle.

[6] = molecular target: T1, hERα (Homo sapiens, UniProt P03372); assay: ERα-Luc reporter gene activation in transfected HEK 293 cells; conditions: 0 to 9 µg/ml, 20 hours
T1 construct: expressed in transfected cells; host or cells: HEK 293 cells (ATCC CRL-1573)
T1 sequence (P03372 whole entry): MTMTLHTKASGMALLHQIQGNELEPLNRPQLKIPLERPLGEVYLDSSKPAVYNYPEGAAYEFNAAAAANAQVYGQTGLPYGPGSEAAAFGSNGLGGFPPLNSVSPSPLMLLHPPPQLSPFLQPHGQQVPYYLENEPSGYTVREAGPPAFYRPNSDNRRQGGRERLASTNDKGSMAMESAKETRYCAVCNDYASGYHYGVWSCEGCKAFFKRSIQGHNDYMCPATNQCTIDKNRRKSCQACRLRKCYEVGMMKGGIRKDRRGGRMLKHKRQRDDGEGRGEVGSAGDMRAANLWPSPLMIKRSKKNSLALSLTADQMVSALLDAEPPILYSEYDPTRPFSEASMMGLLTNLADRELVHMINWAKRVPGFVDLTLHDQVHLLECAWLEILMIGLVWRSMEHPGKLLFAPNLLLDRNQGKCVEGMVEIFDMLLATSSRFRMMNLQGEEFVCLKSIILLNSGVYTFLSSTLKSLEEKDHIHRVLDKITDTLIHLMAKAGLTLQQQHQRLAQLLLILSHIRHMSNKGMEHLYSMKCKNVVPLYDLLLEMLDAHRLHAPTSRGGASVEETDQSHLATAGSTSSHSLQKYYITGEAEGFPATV
Excerpt: (§6) HEK 293 cells (ATCC CRL-1573) were transfected with an expression vector for hERα and hERβ respectively, and an ERE-LUC reporter gene (plus a TK-LUC reporter for normalization) following the protocol of Yoon et al ("Differential activation of wild-type and variant forms of estrogen receptor α by synthetic and natural estrogenic compounds using a promoter containing three estrogen-responsive elements", J. Steroid Biochem. & Molecular Biology (2000), 28: pages 25-32).

[7] = molecular target: T2, hERβ (Homo sapiens, UniProt Q92731); assay: ERβ-Luc reporter gene activation in transfected HEK 293 cells; conditions: for capability in activating ERβ-Luc reporter gene than the ERα-Luc reporter gene: ERβ-Luc versus ERα-Luc, 1200 min; for ERβ-Luc reporter gene activation: HEK 293 cells, 0 to 9 µg/ml, 20 hours
T2 construct: expressed in transfected cells; host or cells: HEK 293 cells (ATCC CRL-1573)
T2 sequence (Q92731 whole entry): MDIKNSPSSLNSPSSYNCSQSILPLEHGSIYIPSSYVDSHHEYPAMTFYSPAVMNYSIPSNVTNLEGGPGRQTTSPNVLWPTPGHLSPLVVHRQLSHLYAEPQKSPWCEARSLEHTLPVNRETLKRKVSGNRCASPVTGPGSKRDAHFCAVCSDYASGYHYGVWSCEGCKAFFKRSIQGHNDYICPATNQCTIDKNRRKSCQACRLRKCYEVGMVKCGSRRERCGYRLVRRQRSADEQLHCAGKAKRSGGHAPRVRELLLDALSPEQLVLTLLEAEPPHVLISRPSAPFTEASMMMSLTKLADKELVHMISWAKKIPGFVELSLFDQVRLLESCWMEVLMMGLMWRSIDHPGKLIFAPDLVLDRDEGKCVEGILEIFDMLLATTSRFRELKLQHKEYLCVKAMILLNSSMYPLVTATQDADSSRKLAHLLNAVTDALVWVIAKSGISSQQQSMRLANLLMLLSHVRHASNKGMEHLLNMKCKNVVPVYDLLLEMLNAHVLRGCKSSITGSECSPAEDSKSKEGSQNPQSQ
Excerpt: as §6

[8] = system: DU-145; assay: Cell cycle measurement by DNA content flow cytometry, DU-145; conditions: protocol of Example 3
Protocol: as §4, §5
A prolongation in the G2M phase leads to the suppression of DU-145 cell proliferation.

SMILES | IC50 [1] [µg/mL] | IC50 [2] [µg/mL] | IC50 [3] [µg/mL] | IC50 [4] [µg/mL] | effect on G1, S, and G2M phases of the LNCaP cell cycle [5] | ERα-Luc reporter gene activation [6] | capability in activating ERβ-Luc reporter gene than the ERα-Luc reporter gene [7] | ERβ-Luc reporter gene activation [7] | effect on DU-145 cell cycle [8]
O=C(/C=C/c1ccc(O)cc1)c1ccc(O)cc1O [isoliquiritigenin, 2',4,4'-trihydroxychalcone] | 3.51 (≈ 13.7 µM) | 7.6 (≈ 29.7 µM) | 3.25 (≈ 12.7 µM) | 3.32 (≈ 13 µM) | G2M phase arrest | dose-responsive behavior | at least 10 times | dose-responsive behavior | 
COc1c(O)cc(O)c2c(=O)cc(-c3ccccc3)oc12 [Wogonin, 5,7-dihydroxy-8-methoxy-flavone] |  |  |  |  | G1 phase arrest | dose-responsive behavior | at least 10 times | dose-responsive behavior | prolonged the G2M phase
